The METLIN SMRT retention time set (Domingo-Almenara et al. 2019)

Test: gradient 5% acetonitrile 3 min, to 50% in 2 min, to 85% in 15 min, held 3 min, 100 µL/min
Conditions: column: Zorbax Extend-C18 2.1 x 50 mm; eluents: water / acetonitrile, 0.1% formic acid
Method in brief: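 The mobile phases were water and acetonitrile, each with 0.1% formic acid, pumped at 100 μL/min through a Zorbax Extend-C18 column (2.1 × 50 mm, 1.8 μm). Pure standards were injected as mixtures of ~100 molecules and detected by a quadrupole time-of-flight mass spectrometer in positive and negative ionization mode. Retention time came from computationally picked adduct peaks, each inspected by hand.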

Row | Compound | RP-LC retention time [s]
1 | Cc1cccc(OCc2nc(CCN(C)C(=O)NC3CCCC3)no2)c1 | 894
2 | O=C(Cn1nc(C2CC2)cc1C(=O)N1CCCC1)N1CCN(c2ccc(Cl)cc2)CC1 | 845
3 | O=C(CC1COc2ccccc2NC1=O)Nc1ccc2c(c1)OCCO2 (centres undefined) | 688
4 | CCC(C)NC(=O)CS(=O)Cc1cnn(-c2ccccc2)c1-n1cccc1 (centres undefined) | 756
5 | O=C(NCCCN1CCN(c2ccc(F)cc2)CC1)C1CCCN(c2nc3cccnc3s2)C1 (centres undefined) | 645
6 | CCC(CC)C(=O)N1CCc2c(c(C(=O)N3CCCC(C(=O)Nc4ccccc4)C3)nn2C)C1 (centres undefined) | 761
7 | O=S(=O)(Cc1ccccc1)N1CCC(Oc2nc3ccccc3s2)CC1 | 1060
8 | COc1ccc(F)cc1S(=O)(=O)N1CCC2(CCC(CN3CCN(C)CC3)O2)CC1 (centres undefined) | 601
9 | Cc1nn(CC(=O)NCCC2=CCCCC2)c(=O)c2c(-n3cccc3)n(-c3cccc(F)c3)nc12 | 1090
10 | CNC(=O)Oc1ccc(N(C)C)cc1C(C)C | 642
11 | CC(=O)Nc1nc(-c2cccnc2)cs1 | 504
12 | Clc1cccc(-c2nc(-c3ccc(-n4ccnc4)nc3)no2)c1 | 815
13 | O=C(Cn1nc2c(cc1=O)CCCC2)Nc1nc(-c2cccnc2)cs1 | 607
14 | O=C(CCNc1c(-c2cccc(F)c2)nc2cnccn12)NCc1cc(F)cc(F)c1 | 769
15 | O=C(COc1ccc(Cl)cc1)Nc1ccc2c(c1)N(C(=O)c1ccco1)CCC2 | 948
16 | Cc1onc(C(=O)N2CCCCCCNC(=O)[C@@H]3CCCC[C@@H]32)c1CN1CCCCC1 | 686
17 | CC(C)CCNS(=O)(=O)c1ccc(-c2cc(C(F)(F)F)on2)o1 | 1090
18 | CNC(Cc1ccccc1)c1ccc(OC)cc1 (centres undefined) | 567
19 | Cc1ncc2c(n1)C[C@@H]1CC[C@H]2N1C(=O)COc1ccccc1 | 669
20 | COc1ccc(C2(c3nc(-c4ccc(CNC(=O)C5CC5)s4)no3)CC2)cc1 | 955
21 | Cc1ccccc1OCC(=O)NC[C@@]12CCC[C@H]1N(C)C(=O)CC2 | 755

Row | Compound | RP-LC retention time [s]
22 | Cc1ccccc1Nc1c(-c2cc(Br)ccc2F)nc2ccc(Br)cn12 | 1120
23 | CCc1cccc(NC(=O)N2CCc3nc[nH]c3C2)c1 | 606
24 | CN(CC(=O)NCc1ccncc1)c1nc2c(Cl)cccc2s1 | 564
25 | CCOc1ccc2nc(Nc3nc(C)c4c(n3)CCCC4)nc(C)c2c1 | 573
26 | CN(C)C(=O)C1c2ccccc2CC(=O)N1Cc1ccccc1 (centres undefined) | 728
27 | Cc1ccccc1CNc1nnc(-c2nc(C3CC3)no2)c2ccccc12 | 936
28 | CS(=O)(=O)NCc1ccc2c(c1)CCN2C(=O)c1ccc(Cl)cc1 | 794
29 | CCCOCCOC(=O)C1=C(C)NC2=C(C(=O)CCC2)C1c1ccc(OC)cc1OC (centres undefined) | 792
30 | O=C(Cc1cccs1)Nc1cccn2nc(C3CCC3)nc12 | 889
31 | Cc1sc2ccn(CC(C)C)c(=O)c2c1C(=O)O | 863
32 | CC12CC(NC(=O)N1c1ccc(C(=O)N3CCN(c4ccccn4)CC3)cc1)c1ccccc1O2 (centres undefined) | 599
33 | O=C(Cn1c(=O)n(-c2ccc(F)cc2)c2ncccc21)NCCN1CCCCCC1 | 625
34 | O=C(CCc1cc2ccccc2[nH]c1=O)NCCN1CCCCCC1 | 595
35 | Cn1nc(C(=O)N2CCCC(C(=O)Nc3ccccc3)C2)c2c1CCN(C(=O)c1cccs1)C2 (centres undefined) | 730
36 | Cc1ccc(CN2C(=O)C3CCCN3C(=O)c3ccccc32)cc1 (centres undefined) | 797
37 | CN(C)CCNC(=O)C1CCCN(c2ccc(=O)n(-c3cccc(Cl)c3)n2)C1 (centres undefined) | 929
38 | Cc1cc(C)c(C#N)c(SCC(=O)Nc2nccs2)n1 | 750
39 | CC1CCN(S(=O)(=O)c2ccc3nn(Cc4cccc(F)c4)c(=O)n3c2)CC1 | 781
40 | Cc1sc2ccn(C)c(=O)c2c1C(=O)NCc1ccccc1Cl | 798
41 | COc1ccc(S(=O)(=O)N2CC(=O)N(C3CCCC3)C3(CCCCC3)C2)cc1OC | 1080
42 | Cn1nccc1C(=O)NCc1ccc2c(c1)CCN2C(=O)c1ccccc1 | 759

Row | Compound | RP-LC retention time [s]
43 | COC(=O)c1cccc(NC(=O)N2C[C@H]3C[C@@H](C2)c2cccc(=O)n2C3)c1 | 636
44 | Cc1c(CCC(=O)NCC(=O)N[C@@H](C(=O)O)C(C)C)c(=O)oc2c(C)c(O)ccc12 | 636
45 | COc1cc(Cl)ccc1C(=O)N1CCN(c2nc3ccncc3n(C)c2=O)CC1 | 638
46 | Cc1nnc2n1CCC(N(C)C(=O)c1ccsc1)CC2 (centres undefined) | 566
47 | CCc1ccc(CNC(=O)C2CCN(C(=O)c3ncn4c3COC(c3ccccc3)C4)CC2)cc1 (centres undefined) | 756
48 | CCN(c1ccccc1)S(=O)(=O)c1cc2c3c(c1)CCC(=O)N3CCC2 | 910
49 | Clc1ccc(-c2nc(-c3ccc(-n4ccnc4)nc3)no2)cc1 | 797
50 | CCOCC(=O)N1CCCCCNC(=O)[C@@H]2CCCC[C@@H]21 | 657
51 | Cc1ncc2c(n1)C[C@@H]1CC[C@H]2N1C(=O)c1ccc2c(c1)OCO2 | 639
52 | CC(C)NC(=O)C1CCCN(c2nc3ncn(CC(=O)NC4CCCC4)c(=O)c3s2)C1 (centres undefined) | 1210
53 | O=S(=O)(NCc1ccccc1F)c1ccccc1-c1nc(-c2cccc(F)c2)no1 | 1170
54 | CCCn1cc(CCNC(=O)Nc2cccc(Cl)c2)c2cccnc21 | 828
55 | O=c1c2cc(-c3ccc4c(c3)OCO4)nn2ccn1Cc1nc(-c2cccc(F)c2)no1 | 1010
56 | O=C1CC(c2noc(CCCc3ccccc3)n2)CN1c1ccc(F)c(Cl)c1 (centres undefined) | 1150
57 | CO[C@H]1C(=O)N(C(C)C)[C@H]1C1CCN(C(=O)c2cnn(C)c2)CC1 | 612
58 | CCCNc1nnc(-c2nnc(CC)o2)c2ccccc12 | 647
59 | COc1ccc(OC)c(S(=O)(=O)NCc2ccc3c(c2)CCN3C(=O)c2ccccc2)c1 | 896
60 | O=C1CC(c2noc(C3CCC3)n2)CN1c1ccccc1 (centres undefined) | 869
61 | COc1cccc(CCC(=O)N2C[C@@H]3C[C@H](NC(=O)c4ccccc4)[C@H]2C3)c1 | 793

Second part, the compound after the results:

Row | RP-LC retention time [s] | Compound
62 | 905 | Cc1cc(C)cc(Oc2nccn3c(=O)n(CC(=O)NC4CCCCC4)nc23)c1
63 | 865 | CCOC(=O)c1c(C)c(CCC(=O)NCc2ccc3c(c2)OCO3)c(C)n1C
64 | 727 | Cc1cc(NC(=O)Cn2ccn3nc(-c4ccc(F)cc4)c(CO)c3c2=O)no1
65 | 841 | CCOc1ccc(N2C(=O)CC(c3ccc(OC)c(OC)c3)CC2=O)cc1
66 | 795 | Cc1cc(C)cc(C(=O)NC2CCN(c3cc(-c4ccc(F)cc4)[nH]n3)C2)c1 (centres undefined)
67 | 816 | Cc1cc(C2CCCN2C(=O)c2c(-c3ccccc3Cl)noc2C)on1 (centres undefined)
68 | 647 | CC(=O)NC[C@H]1CN(c2ccc(-c3ccc(CNCc4cn[nH]n4)cc3)c(F)c2)C(=O)O1
69 | 1050 | COc1ccccc1N1CCN(C(=O)c2sc3cccc(F)c3c2OC)CC1
70 | 1030 | CCOC(=O)C1CCN(c2ncc(S(=O)(=O)c3ccc(CC)cc3)c(N)n2)CC1
71 | 793 | CCOC(=O)c1c(S(=O)(=O)N2CCC(C(=O)NCc3ccc(OC)cc3)CC2)c(C)n(C)c1C
72 | 791 | CCc1noc(NC(C)=O)c1-c1ccc(OC)c(S(=O)(=O)Nc2ccccc2OC)c1
73 | 1060 | Cc1nn2c(C)c(C(=O)OC(C)C)nnc2c1-c1ccc(F)cc1
74 | 853 | COCc1cc2nn(CC(=O)Nc3cc(F)ccc3C)c(=O)n2c(-c2ccccc2)n1
75 | 653 | Cc1ccc(NC(=O)N2CCC(C(C)C(=O)Nc3cc(F)ccc3F)CC2)cc1 (centres undefined)
76 | 786 | Cc1ccc(C2NC(=O)N(CC(=O)Nc3ccccc3F)C3=C2C(=O)OC3)cc1 (centres undefined)
77 | 931 | CCn1nccc1-c1cccc(-c2noc(CNS(=O)(=O)c3ccc(F)cc3)n2)c1
78 | 800 | CCOC(=O)c1c(S(=O)(=O)N2CCC(C(=O)NCc3ccccc3OC)CC2)c(C)n(C)c1C
79 | 977 | CCOC(=O)C1CCN(c2nnc(-c3nnc(CC)o3)c3ccccc23)CC1
80 | 774 | O=C(Nc1cc(F)ccc1F)C1CCCN(c2ncnc3c2nc2n3CCCCC2)C1 (centres undefined)
81 | 828 | COc1ccc(-c2csc(NC(=O)Cn3c(=O)oc4ccccc43)n2)cc1OC
82 | 1020 | Cc1nc2cc(-c3noc(Cc4ccc(Br)cc4)n3)ccc2n(C)c1=O
83 | 915 | Cc1cc(N2CCC(NC(=O)Nc3ccccc3C(F)(F)F)C2=O)ccc1F (centres undefined)
84 | 693 | CCc1nnc(-c2ccc(=O)n(CC(=O)Nc3ccc(C)cc3C)c2)o1
85 | 779 | O=C(Cn1c(=O)c2cc(C3CC3)nn2c2ncccc21)Nc1ccc(F)cc1F
86 | 1100 | COC(=O)c1c(-c2ccccc2)noc1NCc1ccccc1OC
87 | 760 | COc1ccccc1CNC(=O)Cn1c(=O)c2cc(C3CC3)nn2c2ncccc21
88 | 756 | Cc1ccc(S(=O)(=O)N2CCC(n3cnnc3C(C)C)CC2)cc1F
89 | 1090 | Cc1ccc(N2CC(c3noc(-c4ccccc4C)n3)CC2=O)cc1 (centres undefined)
